Reference: patent US20130046283A1, “METHODS AND INTRAVASCULAR TREATMENT DEVICES FOR TREATMENT OF ATHEROSCLEROSIS” (Medtronic Vascular, Inc., priority 2011, published 2013)
“Also recorded” adds a separate entry of the source.

Legend:
Type in all cases: cell-based
BTG2 = test: qRT-PCR BTG2 gene expression in SFA smooth muscle cells, drug then inflammatory cocktail; details: quiescent SFA smooth muscle cells, drug then FBS, TGF Beta and IL-1 beta cocktail; calibrated against unstimulated baseline; FIG. 14A
Method: (§1) FIG. 14 depicts differential effect of paclitaxel versus the Limus family of drugs on expression of cell cycle, proliferation and ECM target genes in SFA smooth muscle cells. Quiescent SFA smooth muscle cells were treated with of Paclitaxel, Zotarolimus or Sirolimus then stimulated with inflammatory cocktail consisting of FBS, TGF Beta and 11—1 beta. Relative gene expression levels were determined by qRT-PCR for each drug treated arm as calibrated against the unstimulated baseline control for (A) BTG2, (B) KLF4, (C) PEDF, (D) Endothelin-1, (E) Thrombospondin-1, and (F) Thrombospondin-3.
(§2) Since the limus drugs have been known to affect the signaling via their effect on cell cycle inhibitors (CDKN1A and CDKN1 B), we next studied their effects on the pertinent proliferative disease targets identified in this study. Specifically, we looked at BTG2, KLF4 and PEDF (FIGS. 14A, 14B, and 14C, respectively).

Endothelin-1 = test: qRT-PCR Endothelin-1 gene expression in SFA smooth muscle cells, drug then inflammatory cocktail; details: quiescent SFA smooth muscle cells, FIG. 14D
Method: as §1
(§3) In a similar manner, the expression of Thrombospondin-1 and Thrombospondin-3 is inhibited by paciltaxel but not by sirolimus and zotarolimus. Taken together the data with regards to the differential effects of commercially employed, anti-proliferative drugs, such as paciltaxel and drugs of the limus family, on the expression of SFA disease target genes can highlight/point to wards the most beneficial therapeutic mode of application and treatment.

KLF4 = test: qRT-PCR KLF4 gene expression in SFA smooth muscle cells, drug then inflammatory cocktail; details: quiescent SFA smooth muscle cells, drug then FBS, TGF Beta and IL-1 beta cocktail; calibrated against unstimulated baseline; FIG. 14B
Method: as §1, §2

CDKN1A = test: qRT-PCR CDKN1A gene expression in drug-treated SFA smooth muscle cells; details: SFA smooth muscle cells from normal donor tissue; qRT-PCR calibrated against unstimulated control; FIG. 13A
Method: (§4) FIG. 13 depicts effects of paclitaxel on cellular morphology, gene and protein expression. (A and B) SFA smooth muscle cells from normal donor tissue were treated with Paclitaxel, Everolimus or Sirolimus. Gene expression levels were determined by qRT-PCR for each drug arm calibrated against unstimulated control for (A) CDKN1A and (C) CTGF. (B) SMCs were exposed to Sirolimus or Paclitaxel, fixed and stained with Actin (red) and Ki67 (green). (D) SFA derived smooth muscle cells were treated with Paclitaxel, Everolimus or Sirolimus then stimulated with Colchicinne (CTGF a) or Angiotensin II (CTGF b). Protein levels were detected by western blot using antibodies against CTGF and beta actin. One representative blot of three replicates shown.
(§5) Obtaining samples from SFA arteries allowed us to generate SFA derived-smooth muscle cells and to examine the expression of genes of interest as ide12tified in the disease atherectomy samples. In particularly we investigated the transcriptional response to anti-proliferative drugs, e.g. paclitaxel and drugs from the limus family such as sirolimus, everolimus or zotarolimus. These drugs are currently employed in combination devices indicated for the treatment of coronary and peripheral disease, including drug eluting stents and drug eluting balloons. […]

PEDF = test: qRT-PCR PEDF gene expression in SFA smooth muscle cells, drug then inflammatory cocktail; details: quiescent SFA smooth muscle cells, drug then FBS, TGF Beta and IL-1 beta cocktail; calibrated against unstimulated baseline; FIG. 14C
Method: as §1, §2

SFA smooth muscle cells = test: Actin and Ki67 staining of SMCs exposed to drug (cellular morphology); details: SMCs fixed and stained with Actin and Ki67; FIG. 13B
Method: as §4, §5

Thrombospondin-1 = test: qRT-PCR Thrombospondin-1 gene expression in SFA smooth muscle cells, drug then inflammatory cocktail; details: quiescent SFA smooth muscle cells, FIG. 14E
Method: as §1, §3

CTGF [1] = test: Western blot of CTGF protein in drug-treated SFA derived smooth muscle cells; details: drug then Colchicinne or Angiotensin II stimulation, FIG. 13D
Method: as §4, §5

Thrombospondin-3 = test: qRT-PCR Thrombospondin-3 gene expression in SFA smooth muscle cells, drug then inflammatory cocktail; details: quiescent SFA smooth muscle cells, FIG. 14F
Method: as §1, §3

CTGF [2] = test: qRT-PCR CTGF gene expression in drug-treated SFA smooth muscle cells; details: qRT-PCR calibrated against unstimulated control, FIG. 13C
Method: as §4, §5

SMILES | expression of BTG2 (BTG2) | expression of Endothelin-1 (Endothelin-1) | expression of KLF4 (KLF4) | CDKN1A expression (CDKN1A) | expression of PEDF (PEDF) | effect on cellular cytoskeleton / morphology (SFA smooth muscle cells) | expression of Thrombospondin-1 (Thrombospondin-1) | expression of Thrombospondin-1 (Thrombospondin-1; listed as paciltaxel) | CTGF protein levels (CTGF [1]) | expression of Endothelin-1 (Endothelin-1; listed as paciltaxel) | expression of Thrombospondin-3 (Thrombospondin-3) | expression of Thrombospondin-3 (Thrombospondin-3; listed as paciltaxel) | expression of CTGF (gene) (CTGF [2])
CO[C@H]1C[C@@H]2CC[C@@H](C)[C@@](O)(O2)C(=O)C(=O)N2CCCC[C@H]2C(=O)O[C@H]([C@H](C)C[C@@H]2CC[C@H](n3cnnn3)[C@H](OC)C2)CC(=O)[C@H](C)/C=C(\C)[C@@H](O)[C@@H](OC)C(=O)[C@H](C)C[C@H](C)/C=C/C=C/C=C/1C [zotarolimus] | induced the expression | substantially upregulated | induced the expression |  |  |  |  |  |  |  |  |  | 
CO[C@H]1C[C@@H]2CC[C@@H](C)[C@@](O)(O2)C(=O)C(=O)N2CCCC[C@H]2C(=O)O[C@H]([C@H](C)C[C@@H]2CC[C@@H](OCCO)[C@H](OC)C2)CC(=O)[C@H](C)/C=C(\C)[C@@H](O)[C@@H](OC)C(=O)[C@H](C)C[C@H](C)/C=C/C=C/C=C/1C [everolimus] |  |  |  | up regulating |  |  |  |  |  |  |  |  | 
CC(=O)O[C@H]1C(=O)[C@@]2(C)[C@H]([C@H](OC(=O)c3ccccc3)[C@]3(O)C[C@H](OC(=O)[C@H](O)[C@@H](NC(=O)c4ccccc4)c4ccccc4)C(C)=C1C3(C)C)[C@]1(OC(C)=O)CO[C@@H]1C[C@@H]2O [Paclitaxel] | up regulated | substantially down regulated | up regulated | does not affect | up regulated | disrupting cellular cytoskeleton | substantially down regulated | inhibited | reduced | slightly inhibited | substantially down regulated | inhibited | substantial down regulation; also recorded: substantially down regulated
